# Values of other authors as cited in patent US20080188497A1, “Dipyridamole, Acetylsalicylic Acid, and Angiotensin II Antagonist Pharmaceutical Compositions” (Boehringer Ingelheim International GmbH, priority 2003, published 2008).
# Details: ESPS-2 clinical study; compared with low-dose aspirin / aspirin alone
compound,measurement,value
"OCCN(CCO)c1nc(N2CCCCC2)c2nc(N(CCO)CCO)nc(N3CCCCC3)c2n1 [dipyridamole, 2,6-bis(diethanolamino)-4,8-dipiperidinopyrimido[5,4-d]pyrimidine]",reduction of stroke risk,as effective as low-dose aspirin
